Columns and labels:
NBD1/3D = experiment: Aggregation analysis using differential static light scattering (DSLS), NBD1 thermal stability; type: binding, Human; conditions: ΔTagg versus DMSO control; compound at 100 μM
Procedure, shortened: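 Thermal stabilisation reported as ΔTagg, i.e. aggregation temperature relative to averaged DMSO wells. Tagg came from the inflection of differential static light scattering imaged 25–70 °C while NBD1 (0.2 mg/ml, Tris pH 7.6 buffer containing ATP, MgCl2, DTT, glycerol) was ramped 1 °C/min.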

CFTR = target: T1, CFTR (Homo sapiens, UniProt P13569, DEL508-508); experiment: TECC24 recording of CFTR-mediated transepithelial chloride transport in ΔF508 homozygous CF-HBE cells; type: cell-based; conditions: 10 μM test agent, 48 hours incubation, AUC of forskolin-stimulated IEQ divided by vehicle AUC, primary CF-HBE cells
T1 construct: Primary human bronchial epithelial cells from a ΔF508 homozygous CF donor; host or cells: primary human bronchial epithelial cells (CF-HBE), ΔF508 homozygous donor
T1 sequence (P13569 with tags, fused parts or gaps DEL508-508): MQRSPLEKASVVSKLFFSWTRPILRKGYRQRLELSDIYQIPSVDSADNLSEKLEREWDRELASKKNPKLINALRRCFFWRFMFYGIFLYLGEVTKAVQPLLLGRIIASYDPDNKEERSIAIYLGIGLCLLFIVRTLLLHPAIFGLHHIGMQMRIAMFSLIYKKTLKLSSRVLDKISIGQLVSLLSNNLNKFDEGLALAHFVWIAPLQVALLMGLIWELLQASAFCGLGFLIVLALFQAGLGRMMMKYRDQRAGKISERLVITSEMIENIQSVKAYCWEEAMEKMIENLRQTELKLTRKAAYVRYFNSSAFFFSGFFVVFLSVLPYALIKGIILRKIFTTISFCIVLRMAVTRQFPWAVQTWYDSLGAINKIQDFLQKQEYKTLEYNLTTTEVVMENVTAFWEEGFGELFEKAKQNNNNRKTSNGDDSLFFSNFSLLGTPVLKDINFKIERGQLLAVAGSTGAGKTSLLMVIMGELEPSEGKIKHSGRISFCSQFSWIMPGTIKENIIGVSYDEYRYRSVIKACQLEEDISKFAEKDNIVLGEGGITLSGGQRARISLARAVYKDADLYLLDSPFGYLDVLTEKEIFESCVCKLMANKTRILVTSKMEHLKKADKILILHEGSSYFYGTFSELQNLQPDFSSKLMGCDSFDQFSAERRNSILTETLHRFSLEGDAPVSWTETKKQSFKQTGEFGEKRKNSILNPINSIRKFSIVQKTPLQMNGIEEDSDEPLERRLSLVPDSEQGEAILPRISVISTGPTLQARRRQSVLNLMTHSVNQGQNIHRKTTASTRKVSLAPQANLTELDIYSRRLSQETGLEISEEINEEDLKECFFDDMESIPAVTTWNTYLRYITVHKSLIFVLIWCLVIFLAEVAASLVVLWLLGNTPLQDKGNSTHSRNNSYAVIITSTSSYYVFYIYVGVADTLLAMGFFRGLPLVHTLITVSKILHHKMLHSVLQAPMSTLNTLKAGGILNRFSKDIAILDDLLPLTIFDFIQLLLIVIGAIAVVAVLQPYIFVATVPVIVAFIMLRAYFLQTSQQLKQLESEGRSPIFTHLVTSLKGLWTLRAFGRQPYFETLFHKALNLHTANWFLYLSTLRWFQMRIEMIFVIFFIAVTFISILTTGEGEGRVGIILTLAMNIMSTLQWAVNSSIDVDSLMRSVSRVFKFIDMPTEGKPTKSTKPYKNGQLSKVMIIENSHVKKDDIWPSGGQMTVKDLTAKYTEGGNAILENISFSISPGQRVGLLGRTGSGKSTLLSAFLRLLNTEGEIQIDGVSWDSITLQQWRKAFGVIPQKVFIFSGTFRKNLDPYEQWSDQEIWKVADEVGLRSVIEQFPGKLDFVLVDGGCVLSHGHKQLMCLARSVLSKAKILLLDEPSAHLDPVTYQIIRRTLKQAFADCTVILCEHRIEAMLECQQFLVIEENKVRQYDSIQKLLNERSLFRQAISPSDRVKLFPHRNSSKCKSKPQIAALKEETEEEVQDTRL
Protocol: The effects of a test agent on CFTR-mediated transepithelial chloride transport was measured using TECC24 recording analysis. Test agents were solubilized in DMSO. Solubilized test agents were mixed with incubation medium containing DMEM/F12, Ultroser G (2%; Crescent Chemical, catalog #67042), Hyclone Fetal Clone II (2%; GE Healthcare, catalog #SH30066.02), bovine brain extract (0.25%; Lonza, catalog #CC-4098), insulin (2.5 μg/mL), IL-13 (10 ng/mL), hydrocortisone (20 nM), transferrin (2.5 μg/mL), triiodothyronine (500 nM), ethanolamine (250 nM), epinephrine (1.5 μM), phosphoethanolamine (250 nM), and retinoic acid (10 nM). Primary human bronchial epithelial cells from a ΔF508 homozygous CF donor (CF-HBE cells; from University of North Carolina Cystic Fibrosis Tissue Procurement Center), grown on Transwell HTS 24-well cell culture inserts (Costar, catalog #3378), were exposed to test agents or controls dissolved in incubation medium. The CF-HBE cells were cultured at 36.5° C. for 48 hours before TECC24 recordings were performed in the presence or absence of test agent, a positive control or vehicle (DMSO).
Following incubation, the transwell cell culture inserts containing the test agent or control-treated CF-HBE cells were loaded onto a TECC24 apparatus (TECC v7 or MTECC v2; EP Design) to record the transepithelial voltage (VT) and resistance (TEER) using 4 AgCl electrodes per well configured in current-clamp mode. The apical and basolateral bath solutions both contained (in mM) 140 NaCl, 5 KCl, 2 CaCl2, 1 MgCl2, 10 Hepes, and 10 glucose (adjusted to pH 7.4 with NaOH). To inhibit basal Na+ absorption, the ENaC inhibitor benzamil (10 μM) was added to the bath. Then, the adenylate cyclase activator, forskolin (10 μM), was added to the bath to activate CFTR. The forskolin-stimulated Cl— transport was halted by addition of CFTR inhibitor-172 (20 μM) to the bath at the end of the experiment to confirm specificity. VT and TEER recordings were digitally acquired at routine intervals using TECC or MTECC software (EP Design). VT and TEER were transformed into equivalent transpeithelial Cl— current (IEQ), and the Area Under the Curve (AUC) of the IEQ timecourse between forskolin and CFTR inhibitor-172 addition is generated using Excel (Microsoft). Efficacy is expressed as the ratio of the test agent AUC divided by vehicle AUC. EC50s based on AUC are generated using the non-linear regression log(agonist) vs. response function in Prism software (Graphpad) with HillSlope fixed=1.
If a test agent increased the AUC of the forskolin-stimulated IEQ relative to vehicle in CF-HBE cells, and this increase was inhibited by CFTR inhibitor-172, then the test agent was considered a CFTR corrector.

Row | SMILES | DSLS NBD1/3D Human Stability delta-T (° C.) @ 100 (μM) (NBD1/3D) | TECC24 @ 10 μM over DMSO (AUC fold over DMSO) (CFTR)
1 | CC(c1cnc(-c2cc(Oc3c(F)cc4[nH]ccc4c3CN3CCCS3(=O)=O)ccc2F)[nH]1)c1cccc(CCC(=O)O)c1F (single isomer, unassigned) [Example 134B, 3-(3-(1-(2-(5-((4-((1,1-dioxidoisothiazolidin-2-yl)methyl)-6-fluoro-1H-indol-5-yl)oxy)-2-fluorophenyl)-1H-imidazol-5-yl)ethyl)-2-fluorophenyl)propanoic acid] | A (A: T ≥ 10° C.) | A (“A” refers to AUC @10 uM >= 12)
2 | CC(O)(c1cccc(CCC(=O)O)c1)c1c[nH]c(-c2cc(C(=O)c3ccc4[nH]ccc4c3)ccc2F)n1 (stereo not shown) [Example 194, 3-(3-(1-(2-(2-fluoro-5-(1H-indole-5-carbonyl)phenyl)-1H-imidazol-4-yl)-1-hydroxyethyl)phenyl) propanoic acid] | B (B: 5-10° C.) | C (“C” refers to AUC @ 10 uM <= 4)
3 | CC(c1cnc(-c2cc(Oc3c(F)cc4[nH]ccc4c3CC(F)(F)F)ccc2F)[nH]1)c1cccc(CCC(=O)O)c1F (single isomer, unassigned) [Example 128B, 3-(2-fluoro-3-(1-(2-(2-fluoro-5-((6-fluoro-4-(2,2,2-trifluoroethyl)-1H-indol-5-yl)oxy)phenyl)-1H-imidazol-5-yl)ethyl)phenyl)propanoic acid] | A (A: T ≥ 10° C.) | A (“A” refers to AUC @10 uM >= 12)
4 | C[C@H]1C[C@](c2cccc(CCC(=O)O)c2)(c2c[nH]c(-c3cc(Oc4c(F)cc5[nH]ccc5c4F)ccc3F)n2)CCO1 (racemic) [Example 155, 3-(3-((2S)-4-(2-(5-((4,6-difluoro-1H-indol-5-yl)oxy)-2-fluorophenyl)-1H-imidazol-5-yl)-2-methyltetrahydro-2H-pyran-4-yl)phenyl)propanoic acid] | A (A: T ≥ 10° C.) | A (“A” refers to AUC @10 uM >= 12)
5 | CC(Cc1cccc(C(C)c2cnc(-c3cc(Oc4c(F)cc5[nH]ccc5c4F)ccc3F)[nH]2)c1F)C(=O)O (single isomer, unassigned) [Example 137D, 3-(3-(1-(2-(5-((4,6-difluoro-1H-indol-5-yl)oxy)-2-fluorophenyl)-1H-imidazol-5-yl)ethyl)-2-fluorophenyl)-2-methylpropanoic acid] | A (A: T ≥ 10° C.) | A (“A” refers to AUC @10 uM >= 12)
6 | [2H]C([2H])([2H])C(C#N)(c1cccc(CCC(=O)O)c1)c1cnc(-c2cc(Oc3c(F)c(F)c4[nH]ccc4c3F)ccc2F)[nH]1 (single isomer, unassigned) [Example 64B, 3-(3-(1-Cyano-1-(2-(2-fluoro-5-((4,6,7-trifluoro-1H-indol-5-yl)oxy)phenyl)-1H-imidazol-5-yl)ethyl-2,2,2-d3)phenyl)propanoic acid] | B (B: 5-10° C.) | A (“A” refers to AUC @10 uM >= 12)
7 | Cc1c(Oc2cc(-c3ncc(C(C)(O)c4cccc(CCC(=O)O)c4)[nH]3)c(F)cc2F)c(F)cc2[nH]ccc12 (stereo not shown) [Example 206, 3-(3-(1-(2-(2,4-difluoro-5-((6-fluoro-4-methyl-1H-indol-5-yl)oxy)phenyl)-1H-imidazol-5-yl)-1-hydroxyethyl)phenyl) propanoic acid] | B (B: 5-10° C.) | C (“C” refers to AUC @ 10 uM <= 4)
8 | CC(c1cnc(-c2cc(Oc3c(F)cc4[nH]ccc4c3F)ccc2F)[nH]1)c1cccc(CC(=O)O)c1F (single isomer, unassigned) [Example 131A, 2-(3-(1-(2-(5-((4,6-difluoro-1H-indol-5-yl)oxy)-2-fluorophenyl)-1H-imidazol-5-yl)ethyl)-2-fluorophenyl)acetic acid] | A (A: T ≥ 10° C.) | A (“A” refers to AUC @10 uM >= 12)
